# Source: PubChem BioAssay (NCI)
#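 In this assay, cells in 96-well plates receive the compound at five concentrations for 48 hours. Endpoints are linearly interpolated between the surrounding concentrations. The concentration for full growth arrest is given as TGI.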
# Tests used:
# Assay in all cases: NCI anticancer screen, dose series, 48 h
# M14 melanoma = system: M14 melanoma
# OVCAR-8 ovarian = system: OVCAR-8 ovarian
# SN12C renal = system: SN12C renal
# SNB-19 CNS = system: SNB-19 CNS
# DMS 273 small cell lung = system: DMS 273 small cell lung
# NCI-H522 lung = system: NCI-H522 lung
# CAKI-1 renal = system: CAKI-1 renal
# HL-60(TB) leukemia = system: HL-60(TB) leukemia
# IGROV1 ovarian = system: IGROV1 ovarian
# SF-539 CNS = system: SF-539 CNS
# K-562 leukemia = system: K-562 leukemia
# SK-MEL-5 melanoma = system: SK-MEL-5 melanoma
# KM12 colon = system: KM12 colon
# SW-620 colon = system: SW-620 colon
# HOP-92 NSCLC = system: HOP-92 NSCLC
# M19-MEL melanoma = system: M19-MEL melanoma
# A549 NSCLC = system: A549 NSCLC
# UO-31 renal = system: UO-31 renal
# LXFL 529 NSCLC = system: LXFL 529 NSCLC
# NCI-H23 lung = system: NCI-H23 lung
# EKVX NSCLC = system: EKVX NSCLC
# RPMI-8226 leukemia = system: RPMI-8226 leukemia
# LOX IMVI melanoma = system: LOX IMVI melanoma
# SK-OV-3 ovarian = system: SK-OV-3 ovarian
# HCT-116 colon = system: HCT-116 colon
# XF 498 CNS = system: XF 498 CNS
# HT29 colon = system: HT29 colon
# SF-268 CNS = system: SF-268 CNS
# UACC-62 melanoma = system: UACC-62 melanoma
# HOP-18 NSCLC = system: HOP-18 NSCLC
# U251 CNS = system: U251 CNS
# DMS 114 small cell lung = system: DMS 114 small cell lung
# OVCAR-5 ovarian = system: OVCAR-5 ovarian
# A498 renal = system: A498 renal
# 786-0 renal = system: 786-0 renal
# ACHN renal = system: ACHN renal
# HCC-2998 colon = system: HCC-2998 colon
# HOP-62 NSCLC = system: HOP-62 NSCLC
# TK-10 renal = system: TK-10 renal
# SNB-78 CNS = system: SNB-78 CNS
# NCI-H226 lung = system: NCI-H226 lung
# OVCAR-3 ovarian = system: OVCAR-3 ovarian
# SK-MEL-28 melanoma = system: SK-MEL-28 melanoma
# SK-MEL-2 melanoma = system: SK-MEL-2 melanoma
# SF-295 CNS = system: SF-295 CNS
# RXF 393 renal = system: RXF 393 renal
# MOLT-4 leukemia = system: MOLT-4 leukemia
# CCRF-CEM leukemia = system: CCRF-CEM leukemia
# MALME-3M melanoma = system: MALME-3M melanoma
# UACC-257 melanoma = system: UACC-257 melanoma
# HCT-15 colon = system: HCT-15 colon
# SNB-75 CNS = system: SNB-75 CNS
# NCI-H460 lung = system: NCI-H460 lung
# OVCAR-4 ovarian = system: OVCAR-4 ovarian
# KM20L2 colon = system: KM20L2 colon
# SR leukemia = system: SR leukemia
# COLO 205 colon = system: COLO 205 colon
# DLD-1 colon = system: DLD-1 colon
smiles,measurement,setting,value
O=C(/C=C/c1cccc([N+](=O)[O-])c1)c1cccnc1,TGI,M14 melanoma,19.6 µM
same,TGI,OVCAR-8 ovarian,> 100 µM
same,TGI,SN12C renal,> 62.9 µM
same,TGI,SNB-19 CNS,> 94.7 µM
same,TGI,DMS 273 small cell lung,69.6 µM
same,TGI,NCI-H522 lung,25.3 µM
same,TGI,CAKI-1 renal,> 90.8 µM
same,TGI,HL-60(TB) leukemia,48.3 µM
same,TGI,IGROV1 ovarian,70.4 µM
same,TGI,SF-539 CNS,48.3 µM
same,TGI,K-562 leukemia,> 78.5 µM
same,TGI,SK-MEL-5 melanoma,22.3 µM
same,TGI,KM12 colon,43.3 µM
same,TGI,SW-620 colon,37.5 µM
same,TGI,HOP-92 NSCLC,> 100 µM
same,TGI,M19-MEL melanoma,> 67.9 µM
same,TGI,A549 NSCLC,> 100 µM
same,TGI,UO-31 renal,> 70.7 µM
same,TGI,LXFL 529 NSCLC,43 µM
same,TGI,NCI-H23 lung,44.8 µM
same,TGI,EKVX NSCLC,> 100 µM
same,TGI,RPMI-8226 leukemia,44.8 µM
same,TGI,LOX IMVI melanoma,40.1 µM
same,TGI,SK-OV-3 ovarian,> 100 µM
same,TGI,HCT-116 colon,33.3 µM
same,TGI,XF 498 CNS,> 81.1 µM
same,TGI,HT29 colon,42.9 µM
same,TGI,SF-268 CNS,> 86.4 µM
same,TGI,UACC-62 melanoma,> 82.4 µM
same,TGI,HOP-18 NSCLC,> 31.2 µM
same,TGI,U251 CNS,56.1 µM
same,TGI,DMS 114 small cell lung,52.9 µM
same,TGI,OVCAR-5 ovarian,> 100 µM
same,TGI,A498 renal,> 62.9 µM
same,TGI,786-0 renal,30.5 µM
same,TGI,ACHN renal,> 100 µM
same,TGI,HCC-2998 colon,> 66.1 µM
same,TGI,HOP-62 NSCLC,> 100 µM
same,TGI,TK-10 renal,> 100 µM
same,TGI,SNB-78 CNS,> 94.2 µM
same,TGI,NCI-H226 lung,> 100 µM
same,TGI,OVCAR-3 ovarian,68.8 µM
same,TGI,SK-MEL-28 melanoma,60.8 µM
same,TGI,SK-MEL-2 melanoma,> 100 µM
same,TGI,SF-295 CNS,> 100 µM
same,TGI,RXF 393 renal,34.4 µM
same,TGI,MOLT-4 leukemia,63.5 µM
same,TGI,CCRF-CEM leukemia,59.2 µM
same,TGI,MALME-3M melanoma,> 100 µM
same,TGI,UACC-257 melanoma,97.7 µM
same,TGI,HCT-15 colon,> 100 µM
same,TGI,SNB-75 CNS,> 91.5 µM
same,TGI,NCI-H460 lung,> 100 µM
same,TGI,OVCAR-4 ovarian,> 100 µM
same,TGI,KM20L2 colon,> 67.8 µM
same,TGI,SR leukemia,62.5 µM
same,TGI,COLO 205 colon,> 87.1 µM
same,TGI,DLD-1 colon,52.2 µM
CCOC(=O)C1(C(=O)OCC)OC(=O)NC2=C1CCCC2,TGI,OVCAR-8 ovarian,> 100 µM
same,TGI,SNB-19 CNS,> 100 µM
same,TGI,DMS 273 small cell lung,> 100 µM
same,TGI,NCI-H522 lung,> 100 µM
same,TGI,HL-60(TB) leukemia,> 100 µM
same,TGI,IGROV1 ovarian,> 100 µM
same,TGI,SF-539 CNS,> 100 µM
same,TGI,K-562 leukemia,> 100 µM
same,TGI,SK-MEL-5 melanoma,> 100 µM
same,TGI,KM12 colon,> 100 µM
same,TGI,SW-620 colon,> 100 µM
same,TGI,HOP-92 NSCLC,> 100 µM
same,TGI,M19-MEL melanoma,> 100 µM
same,TGI,A549 NSCLC,> 100 µM
same,TGI,UO-31 renal,> 100 µM
same,TGI,LXFL 529 NSCLC,> 100 µM
same,TGI,NCI-H23 lung,> 100 µM
same,TGI,EKVX NSCLC,> 100 µM
same,TGI,RPMI-8226 leukemia,> 100 µM
same,TGI,LOX IMVI melanoma,> 100 µM
same,TGI,SK-OV-3 ovarian,> 100 µM
same,TGI,HCT-116 colon,> 100 µM
same,TGI,XF 498 CNS,> 100 µM
same,TGI,HT29 colon,> 100 µM
same,TGI,SF-268 CNS,> 100 µM
same,TGI,HOP-18 NSCLC,> 100 µM
same,TGI,U251 CNS,> 100 µM
same,TGI,DMS 114 small cell lung,> 100 µM
same,TGI,OVCAR-5 ovarian,> 100 µM
same,TGI,A498 renal,> 100 µM
same,TGI,786-0 renal,> 100 µM
same,TGI,ACHN renal,> 100 µM
same,TGI,HCC-2998 colon,> 100 µM
same,TGI,HOP-62 NSCLC,> 100 µM
same,TGI,TK-10 renal,> 100 µM
same,TGI,SNB-78 CNS,> 100 µM
same,TGI,OVCAR-3 ovarian,> 100 µM
same,TGI,SK-MEL-28 melanoma,> 100 µM
same,TGI,SK-MEL-2 melanoma,> 100 µM
same,TGI,SF-295 CNS,> 100 µM
same,TGI,RXF 393 renal,> 100 µM
same,TGI,MOLT-4 leukemia,> 100 µM
same,TGI,CCRF-CEM leukemia,> 100 µM
same,TGI,MALME-3M melanoma,> 100 µM
same,TGI,UACC-257 melanoma,> 100 µM
same,TGI,SNB-75 CNS,> 100 µM
same,TGI,NCI-H460 lung,> 100 µM
same,TGI,KM20L2 colon,> 100 µM
same,TGI,COLO 205 colon,> 100 µM
same,TGI,DLD-1 colon,> 100 µM
Cc1c2nc3ccccc3sc-2cc(=O)c1C,TGI,M14 melanoma,> 100 µM
same,TGI,OVCAR-8 ovarian,> 100 µM
same,TGI,SNB-19 CNS,> 100 µM
same,TGI,DMS 273 small cell lung,> 100 µM
same,TGI,NCI-H522 lung,> 100 µM
same,TGI,CAKI-1 renal,> 100 µM
same,TGI,HL-60(TB) leukemia,> 85.5 µM
same,TGI,IGROV1 ovarian,> 100 µM
same,TGI,SF-539 CNS,> 100 µM
same,TGI,K-562 leukemia,> 91.6 µM
same,TGI,SK-MEL-5 melanoma,> 100 µM
same,TGI,KM12 colon,> 100 µM
same,TGI,SW-620 colon,> 100 µM
same,TGI,HOP-92 NSCLC,> 100 µM
same,TGI,M19-MEL melanoma,29.7 µM
same,TGI,A549 NSCLC,> 100 µM
same,TGI,UO-31 renal,> 100 µM
same,TGI,LXFL 529 NSCLC,> 100 µM
same,TGI,NCI-H23 lung,> 100 µM
same,TGI,EKVX NSCLC,> 100 µM
same,TGI,RPMI-8226 leukemia,> 100 µM
same,TGI,LOX IMVI melanoma,> 100 µM
same,TGI,SK-OV-3 ovarian,> 100 µM
same,TGI,HCT-116 colon,> 100 µM
same,TGI,XF 498 CNS,> 100 µM
same,TGI,HT29 colon,> 100 µM
same,TGI,SF-268 CNS,> 100 µM
same,TGI,UACC-62 melanoma,70.3 µM
same,TGI,HOP-18 NSCLC,> 100 µM
same,TGI,U251 CNS,> 100 µM
same,TGI,DMS 114 small cell lung,79.7 µM
same,TGI,OVCAR-5 ovarian,> 100 µM
same,TGI,A498 renal,> 100 µM
same,TGI,786-0 renal,> 100 µM
same,TGI,ACHN renal,> 100 µM
same,TGI,HCC-2998 colon,> 100 µM
same,TGI,HOP-62 NSCLC,> 100 µM
same,TGI,TK-10 renal,> 100 µM
same,TGI,SNB-78 CNS,> 100 µM
same,TGI,NCI-H226 lung,> 100 µM
same,TGI,OVCAR-3 ovarian,> 90.6 µM
same,TGI,SK-MEL-28 melanoma,> 100 µM
same,TGI,SK-MEL-2 melanoma,> 25.2 µM
same,TGI,SF-295 CNS,> 100 µM
same,TGI,RXF 393 renal,> 100 µM
same,TGI,MOLT-4 leukemia,> 100 µM
same,TGI,CCRF-CEM leukemia,> 100 µM
same,TGI,MALME-3M melanoma,> 100 µM
same,TGI,UACC-257 melanoma,> 46.8 µM
same,TGI,HCT-15 colon,> 100 µM
same,TGI,SNB-75 CNS,> 100 µM
same,TGI,NCI-H460 lung,> 100 µM
same,TGI,OVCAR-4 ovarian,> 100 µM
same,TGI,KM20L2 colon,> 100 µM
same,TGI,COLO 205 colon,> 89.2 µM
same,TGI,DLD-1 colon,> 100 µM
